Values joined by “and” are separate entries in the source; they are usually repeats but may differ in a detail not shown here. Equal entries are not always repeated.
Experiments:
[1] = system: human epithelial squamous cell carcinoma cells (A431); test: PpIX fluorescence after varying incubation periods (2, 3 or 4 hours); details: for PpIX fluorescence: A431 cells, individual replicates
Method: (§1) Briefly, cells were seeded at 2×10^4 cells per well in a 96 well plate and left to adhere overnight. Test solutions were prepared on the day of the assay and applied to the cells. The level of PpIX produced was monitored using a multi-well fluorescent plate reader with a 400 (±30) nm excitation filter and a 645 (±40) nm emission filter, with the level of fluorescence produced being directly proportional to the level of PpIX present. Readings were taken hourly for 6 hours and were conducted under low light conditions to reduce photobleaching of PpIX.

[2] = system: human dermal fibroblasts (84BR); test: PDT efficacy: cell viability (NRU assay) following irradiation
Method: (§2) To assess the effect of AP2-18 (8) on PpIX-induced PDT efficacy, the same three cell types were exposed to equimolar concentrations of ALA, ALA and CP94 (3), MAL, MAL and CP94 (3), and AP2-18 (8) (as described previously) and incubated in the dark for 4 hours. The level of PpIX accumulation was then quantified as before, prior to irradiation with red light (37 J/cm^2; 635±2 nm; Aktilite, Galderma, UK).

[3] = system: human epithelial squamous cell carcinoma cells (A431); test: as above; type: cell-based
Method: as §2

[4] = system: human epithelial squamous cell carcinoma cells (A431); test: Cell viability (NRU assay) after irradiation with varying incubation periods (2, 3 or 4 hours); type: cell-based; details: for cell viability: A431 cells, then red light 37 J/cm^2, NRU assay, individual replicates
Method: Neutral red is an inert dye actively taken up and stored by viable (living) cells, an action which is unable to be performed by non-viable cells, therefore the level of neutral red taken up is directly proportional to the number of viable cells present following a given exposure. Following uptake of the dye, cells are lysed and the level of neutral red quantified using a plate reader.
After the relevant incubation period, the cells were irradiated with red light (37 J/cm^2; 635±2 nm; Aktilite, Galderma, UK).

[5] = system: human glioblastoma cells (U87MG); test: PDT efficacy: cell viability (NRU assay) following irradiation; type: cell-based
Method: as §2

[6] = system: MRC-5 (human embryonic lung fibroblast) cells; test: Toxicity testing: neutral red uptake (NRU) assay, inherent (dark) toxicity; details: 0.01% (v/v), positive control
Method: Control cells were incubated in standard cell culture medium.

[7] = system: human glioblastoma cells (U87MG); test: PpIX fluorescence accumulation; type: cell-based; details: for PpIX accumulation (fluorescence): hydrochloride
Method: as §1
(§3) These were tested alongside equimolar concentrations of ALA, ALA and CP94 (3), MAL, and MAL and CP94 (3), with all test compounds being investigated in human dermal fibroblasts (84BR; FIGS. 2A and 2B), human epithelial squamous cell carcinoma cells (A431; FIGS. 3A and 3B) and human glioblastoma cells (U87MG; FIGS. 4A and 4B).

[8] = system: human dermal fibroblasts (84BR); test: PpIX fluorescence accumulation; details: 250-1000 μM, up to 6 hours
Method: as §1, §3

[9] = system: human epithelial squamous cell carcinoma cells (A431); test: PpIX fluorescence accumulation; details: for PpIX accumulation: A431 cells, hydrochloride;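 for all read-outs here: PpIX fluorescence accumulating inside A431 cells, read under dim light to limit photobleaching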
Method: as §1, §3

[10] = 500 μM (combinations: 500 μM each), 4 h dark incubation, red light 37 J/cm^2, normalised to blank control

For COC(=O)CCC(=O)CN [MAL, methyl aminolevulinate], the PpIX fluorescence ([1]; 500 μM (each drug), incubation time 2 hours) was −7.33 and 4.67 and −5.67 (2×) and −7.67 and 8.67 and −2.33 and 1.67 and 21, the PpIX fluorescence ([1]; 500 μM (each drug), incubation time 3 hours) was −3.67 and −6.67 and 5.33 and −2.67 (2×) and 0.33 and 7.67 and −2.33 and 1.67 and the PpIX fluorescence ([1]; 500 μM (each drug), incubation time 4 hours) was −4.33 and −7.33 and 3.67 (2×) and 0.67 and 1.67 and 9 and 0 and 2. The PpIX fluorescence ([1]; 1000 μM (each drug), incubation time 2 hours) was 28 and 21 and 9.67 and 10.67 and 11.67 and −3.667 and 0.3333 and −8.333 and 51, the PpIX fluorescence ([1]; 1000 μM (each drug), incubation time 3 hours) was 45 and 50 and 42 and 22.67 and 25.67 and 20.67 and −3.333 and 0.6667 and −10.3333 and the PpIX fluorescence ([1]; 1000 μM (each drug), incubation time 4 hours) was 70 and 74 and 64 and 34.33 and 39.33 and 30.33 and −2 and 4 and −8.333. The viability at 500 µM ([2]; Homo sapiens, Fibroblast, light or radiation study, 4 h, read-out: cell viability following irradiation, 84BR, 500 μM, 4 hours in the dark, red light 37 J/cm^2, NRU, normalised against blank control cells) was 80.9%, the viability at 1000 µM ([2]; Homo sapiens, Fibroblast, light or radiation study, 4 h, read-out: cell viability following irradiation, 84BR, 1000 μM, 4 hours in the dark, red light 37 J/cm^2, NRU, normalised against blank control cells) was 97.3% and the “cell viability following irradiation” value ([3]; 250 μM (combinations: 250 μM each), 4 h dark incubation, red light 37 J/cm^2, normalised to blank control) was 90.46% and 107.8629% and 109.4385% and 93.64% and 106.3667%. The “cell viability following irradiation” value [3, 10] was 90.24% and 110.2301% and 98.69% and 113.2846% and 104.0869% and 74.42%, the viability at 250 µM ([3]; Homo sapiens, A-431, light or radiation study, 4 h, 250 μM (combinations: 250 μM each), 4 h dark incubation, red light 37 J/cm^2, normalised to blank control) was 110% and the cell viability ([4]; 250 μM (each drug), incubation time 2 hours, 250 µM) was 78.63 and 100.9237 and 89.58 and 117.6227 and 107.2209 and 106.7755 and 45.7309 and 63.26 and 57.86. For the same compound, the cell viability ([4]; 250 μM (each drug), incubation time 3 hours, 250 µM) was 92.9 and 73.67 and 65.45 and 62.6519 and 51.74 and 54.37 and 33.36 and 40.45 and 63.31 and 38.2134 and 54.71 and 47.85, the cell viability ([4]; 250 μM (each drug), incubation time 4 hours, 250 µM) was 90.46 and 107.8629 and 109.4385 and 93.64 and 106.3667 and 111.1665 and 115.1445 and 124.4547 and the cell viability ([4]; 500 μM (each drug), incubation time 2 hours, 500 µM) was 103.8357 and 110.62 and 117.5455 and 82.92 and 108.8432 and 82.89 and 99.5 and 114.8824 and 75.71. The cell viability ([4]; 500 μM (each drug), incubation time 3 hours, 500 µM) was 40.78 and 47.71 and 49.73 and 71.71 and 76.89 and 81.87 and 74.41 and 55.25 and 104.0986 and 49.38 and 75.04 and 67.4, the cell viability ([4]; 500 μM (each drug), incubation time 4 hours, 500 µM) was 90.24 and 110.2301 and 98.69 and 113.2846 and 104.0869 and 74.42 and 104.4856 and 97.36 and 135.6405 and the cell viability ([4]; 1000 μM (each drug), incubation time 2 hours, 1000 µM) was 113.344 and 113.9162 and 113.1911 and 108.366 and 113.6783 and 85.84 and 45.89 and 39.15 and 53.82. The cell viability ([4]; 1000 μM (each drug), incubation time 3 hours, 1000 µM) was 93.27 and 84.83 and 88.71 and 39.35 and 38.5 and 43.01 and 59.91 and 53.88 and 52.9157 and 75.55 and 92.95 and 90.52, the cell viability ([4]; 1000 μM (each drug), incubation time 4 hours, 1000 µM) was 91.78 and 85.804 and 110.3323 and 138.7061 and 132.5587 and 155.8802 and 165.2883 and 91.73 and 106.1163 and the “cell viability following irradiation” value [5, 10] was 83.8% and 72.46% and 73.96% and 78.24% and 80.7%. The viability at 500 µM ([5]; Homo sapiens, U-87 MG, light or radiation study, 4 h, 500 μM (combinations: 500 μM each), 4 h dark incubation, red light 37 J/cm^2, normalised to blank control) was 81.6%.
For OO [H2O2, hydrogen peroxide], the “cell viability by NRU” value [6] was “significant reduction in cell viability”.
For CCc1c(O)c(O)cc[n+]1CCOC(=O)CCC(=O)CN.Cl.[Cl-] [AP2-18, 1-(2-(5-amino-4-oxopentanoyloxy)ethyl)-2-ethyl-3,4-dihydroxypyridinium chloride hydrochloride], the “PpIX vs highest doses of ALA or MAL (1000 μM) at 4 hours” value ([1]; A431, 250 μM, 2 hours incubation) was “produced more PpIX”, the “PpIX levels vs other treatment parameters” value ([1]; A431, 1000 μM, four hours incubation) was “statistically significant higher PpIX levels than any other treatment parameters investigated” and the PpIX fluorescence ([1]; 500 μM (each drug), incubation time 2 hours, hydrochloride) was 35.33 and 33.33 and 57.67 and 49.67 and 55.67 and 58.67 (2×) and 69.67 and 58.33. For the same compound, the PpIX fluorescence ([1]; 500 μM (each drug), incubation time 3 hours, hydrochloride) was 59.33 and 67.33 and 62.33 and 114.33 (2×) and 109.33 and 119.67 and 139.67 and 118.67, the PpIX fluorescence ([1]; 500 μM (each drug), incubation time 4 hours, hydrochloride) was 71.67 and 82.67 and 73.67 and 137.67 and 136.67 and 140.67 and 151.67 and 177.67 and 146.67 and the PpIX fluorescence ([1]; 1000 μM (each drug), incubation time 2 hours, hydrochloride) was 58.33 and 69.33 and 58.67 (2×) and 63.67 and 78.67 and 97.67 and 93.67 (2×). For the same compound, the PpIX fluorescence ([1]; 1000 μM (each drug), incubation time 3 hours, hydrochloride) was 96.33 and 100.33 and 116.33 and 117.33 and 114.33 and 118.33 and 144.67 and 180.67 and 182.67, the PpIX fluorescence ([1]; 1000 μM (each drug), incubation time 4 hours, hydrochloride) was 113.67 and 119.67 and 140.67 and 145.67 and 139.67 and 141.67 and 177.67 and 221.67 and 225.67 and the “reducing cell viability following PDT vs other treatment parameters” value ([2]; 84BR, lowest concentration employed (250 μM)) was “significantly better”. The “PpIX accumulation (fluorescence)” value ([7]; 250 μM (combinations: 250 μM each), exposure time 2 hours) was 114.3 and 128.3 and 146.3 and 125.67 and 126.67 and 129.67 and 130.67 and 128.67, the “PpIX accumulation (fluorescence)” value ([7]; 250 μM (combinations: 250 μM each), exposure time 3 hours) was 172 and 199 and 221 and 195 and 196 and 189.33 and 195.33 and 184.33 and the “PpIX accumulation (fluorescence)” value ([7]; 500 μM (combinations: 500 μM each), exposure time 3 hours) was 312 and 308 and 267 and 279 and 251.33 and 271.33 and 273.33. For the same compound, the “PpIX accumulation (fluorescence)” value ([7]; 1000 μM (combinations: 1000 μM each), exposure time 4 hours) was 519 and 469 and 361 and 447 and 468 and 478 and 456 and 499, the “PpIX accumulation vs ALA or MAL alone or with CP94” value ([7]; 250-1000 μM, up to 6 hours) was “significantly increase PpIX accumulation” and the “reduction in cell viability following PDT” value [3] was “significant reductions in cell viability”. For the same compound, the “PpIX accumulation vs ALA or MAL alone or with CP94” value [8] was “significantly increase PpIX accumulation”, the “PpIX accumulation vs ALA or MAL alone or with CP94” value ([9]; A431, 250-1000 μM, up to 6 hours) was “significantly increase PpIX accumulation” and the PpIX accumulation ([9]; 500 μM (each component), exposure time 1 hour) was 21.33 and 33.67 and 22.67 and 28.67 and 33 and 32 and 29. For the same compound, the PpIX accumulation ([9]; 1000 μM (each component), exposure time 1 hour) was 41.33 and 38.33 and 49.33 and 33.67 and 34.67 and 36.67 and 49 and 51, the PpIX accumulation ([9]; 1000 μM (each component), exposure time 2 hours) was 58.33 and 69.33 and 58.67 and 63.67 and 78.67 and 97.67 and 93.67 and the “cell kill on irradiation compared with ALA or MAL” value ([4]; A431, incubation 2, 3 or 4 hours, greatest cytotoxicity at 4 hours) was “statistically significant increases in cell kill”. For the same compound, the cell viability ([4]; 250 μM (each drug), incubation time 2 hours, hydrochloride, 250 µM) was 97.7 and 86.79 and 91.73 and 133.2414 and 62.66 and 106.5847 and 64.29 and 96.8 and 131.2186, the cell viability ([4]; 250 μM (each drug), incubation time 3 hours, hydrochloride, 250 µM) was 86.93 and 101.2448 and 79.7 and 62.46 and 60.17 and 62.3481 and 33.56 and 37.89 and 49.02 and 32.65 and 47.7341 and 52.75 and the cell viability ([4]; 250 μM (each drug), incubation time 4 hours, hydrochloride, 250 µM) was 7.088 and 6.582 and 5.929 and 7.34 and 6.99 and 6.52 and 32.03 and 32.79 and 31.11. For the same compound, the cell viability ([4]; 500 μM (each drug), incubation time 2 hours, hydrochloride, 500 µM) was 12.86 and 12.74 and 16.04 and 53.68 and 42.01 and 55.47 and 60.64 and 70.31 and 124.24, the cell viability ([4]; 500 μM (each drug), incubation time 3 hours, hydrochloride, 500 µM) was 102.5418 and 125.9215 and 67.1 and 33.04 and 31.45 and 38.59 and 68.88 and 42.19 and 58.38 and 49.61 and 46.3628 and 69.56 and the cell viability ([4]; 500 μM (each drug), incubation time 4 hours, hydrochloride, 500 µM) was 6.023 and 6.336 and 6.646 and 7.159 and 7.63 and 6.693 and 42.88 and 32.5727 and 25.11. For the same compound, the cell viability ([4]; 1000 μM (each drug), incubation time 2 hours, hydrochloride, 1000 µM) was 96.31 and 83.65 and 82.62 and 98.19 and 107.1891 and 53.91 and 80.39 and 46.21 and 97.83, the cell viability ([4]; 1000 μM (each drug), incubation time 3 hours, hydrochloride, 1000 µM) was 92.47 and 93.28 and 87.85 and 39.73 and 38.74 and 37.68 and 45.15 and 47.25 and 41.05 and 50.59 and 59.84 and 82.37 and the cell viability ([4]; 1000 μM (each drug), incubation time 4 hours, hydrochloride, 1000 µM) was 6.315 and 6.002 and 5.891 and 7.607 and 8.758 and 7.362 and 38.09 and 34.2 and 25.3. For the same compound, the “PpIX-induced PDT cell kill” value [5] was “highly effective PpIX-induced PDT cell kill”.

— patent publication US9346758B2, “Pyridinone compounds for use in photodynamic therapy” (UNIVERSITY OF EXETER, priority 2012, dated 2016)
